Measured values as given in the supplement of paper PMC10307832.

Assays:
Experiment in all cases: relative viability (nuclei count vs DMSO), 5 days (fraction); higher = more cells survive
[1] = compound: O=C(Nc1c[nH]nc1-c1nc2ccc(CN3CCOCC3)cc2[nH]1)NC1CC1 [AT9283] + O=C(CCCCCCC(=O)Nc1ccccc1)NO [Vorinostat] (partner 1 µM)
Summary of the method: (§1)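 Lung cancer cell lines were seeded in 1536-well plates and dosed by pin tool the next day, with either a single drug or a fixed anchor-drug dose combined with five library-drug doses (not always all listed) spaced in √10 steps. Five days later, one step fixed the cells and stained their nuclei (final 0.05% Triton X-100, 1% formaldehyde, 1 ug/ml Hoechst), and nuclei were counted on 4× images. Relative viability is the nuclei count in treated wells divided by the count in vehicle wells, and each value is the median of duplicate plates.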

[2] = compound: O=C(Nc1c[nH]nc1-c1nc2ccc(CN3CCOCC3)cc2[nH]1)NC1CC1 [AT9283] + C[C@@H](Oc1cc(-c2cnn(C3CCNCC3)c2)cnc1N)c1c(Cl)ccc(F)c1Cl [Crizotinib] (partner 1 µM)
Summary of the method: as §1

[3] = compound: C#Cc1cccc(Nc2ncnc3cc(OCCOC)c(OCCOC)cc23)c1 [Erlotinib] + O=C(c1cc(Cc2n[nH]c(=O)c3ccccc23)ccc1F)N1CCN(C(=O)C2CC2)CC1 [Olaparib] (partner 8 µM)
Summary of the method: as §1

[4] = compound: O=C(Nc1c[nH]nc1-c1nc2ccc(CN3CCOCC3)cc2[nH]1)NC1CC1 [AT9283] + C[C@]1(O)C[C@@H](c2nc(-c3ccc4ccc(-c5ccccc5)nc4c3)c3c(N)nccn32)C1 [Linsitinib] (partner 1 µM)
Summary of the method: as §1

[5] = compound: O=C(Nc1c[nH]nc1-c1nc2ccc(CN3CCOCC3)cc2[nH]1)NC1CC1 [AT9283] + Cc1nc(NC(=O)N2CCC[C@H]2C(N)=O)sc1-c1ccnc(C(C)(C)C(F)(F)F)c1 [Alpelisib] (partner 2 µM)
Summary of the method: as §1

Row | Cell Line | relative viability ([1]; first compound 0.003 µM) | relative viability ([1]; first compound 0.03 µM) | relative viability ([1]; first compound 0.09487 µM) | relative viability ([1]; first compound 0.3 µM) | relative viability ([2]; first compound 0.003 µM) | relative viability ([2]; first compound 0.03 µM) | relative viability ([2]; first compound 0.09487 µM) | relative viability ([2]; first compound 0.3 µM) | relative viability ([3]; first compound 0.02 µM) | relative viability ([3]; first compound 0.2 µM) | relative viability ([3]; first compound 0.6325 µM) | relative viability ([3]; first compound 2 µM) | relative viability ([4]; first compound 0.003 µM) | relative viability ([4]; first compound 0.03 µM) | relative viability ([4]; first compound 0.09487 µM) | relative viability ([4]; first compound 0.3 µM) | relative viability ([5]; first compound 0.003 µM) | relative viability ([5]; first compound 0.03 µM) | relative viability ([5]; first compound 0.09487 µM) | relative viability ([5]; first compound 0.3 µM)
1 | NCI-H460 | 0.856 | 0.639 | 0.158 | 0.0711 | 0.729 | 0.786 | 0.0665 | 0.0361 | 0.453 | 0.345 | 0.425 | 0.363 | 0.761 | 0.0766 | 0.0186 | 0.0256 | 0.516 | 0.43 | 0.0573 | 0.017
2 | NCI-H520 | 0.56 | 0.271 | 0.223 | 0.235 | 0.692 | 0.322 | 0.285 | 0.182 | 0.413 | 0.343 | 0.37 | 0.335 | 0.926 | 0.37 | 0.291 | 0.181 | 1.01 | 0.338 | 0.274 | 0.239
3 | NCI-H596 | 0.642 | 0.675 | 0.686 | 0.428 | 0.897 | 0.974 | 0.966 | 0.707 | 0.776 | 0.635 | 0.674 | 0.586 | 1.06 | 1.01 | 0.912 | 0.564 | 0.508 | 0.509 | 0.531 | 0.496
4 | NCI-H647 | 0.466 | 0.323 | 0.126 | 0.12 | 1.01 | 0.357 | 0.201 | 0.121 | 0.556 | 0.541 | 0.594 | 0.243 | 1.11 | 0.17 | 0.151 | 0.11 | 1.11 | 0.355 | 0.128 | 0.124
5 | NCI-H650 | 0.405 | 0.375 | 0.282 | 0.146 | 0.6 | 0.368 | 0.222 | 0.22 | 0.419 | 0.389 |  | 0.34 | 0.7 | 0.601 | 0.262 | 0.164 | 1 | 0.951 | 0.252 | 0.162
6 | NCI-H661 | 0.858 | 0.359 | 0.316 | 0.384 | 0.986 | 0.571 | 0.409 | 0.452 | 0.801 | 0.79 | 0.74 | 0.615 | 0.513 | 0.474 | 0.252 | 0.295 | 0.627 | 0.427 | 0.329 | 0.36
7 | NCI-H727 | 1.07 | 0.866 | 0.815 | 0.499 | 0.813 | 0.461 | 0.27 | 0.323 | 0.696 | 0.947 | 0.607 | 0.721 | 0.211 | 0.16 | 0.199 | 0.23 | 0.669 | 0.434 | 0.313 | 0.235
8 | NCI-H838 | 0.68 | 0.221 | 0.194 | 0.24 | 0.877 | 0.367 | 0.246 | 0.186 | 0.823 | 0.766 | 0.859 | 0.726 | 1.01 | 0.247 | 0.217 | 0.197 | 1.06 | 0.367 | 0.262 | 0.269
